Laboratory results as given in paper PMC8162404, “Proteomimetic surface fragments distinguish targets by function” (Chemical Science, 2020).

Tests used:
Gal-1 [1] = biological target: T1, Gal-1 (Homo sapiens, UniProt P09382); assay: Pull-down assay with immobilized protein and LSM libraries; format: binding; conditions: H14 library; 1:1 binding assumed; read-out: Surface mapping KD (apparent)
T1 construct: made in house; host or cells: E. coli BL21(DE3)
How it was run: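 His-tagged protein immobilized on Co-NTA resin (64 µM) in 20 mM HEPES pH 7.4, 150 mM NaCl, equilibrated 30 min at room temperature with foldamer LSM sublibraries at equimolar total concentration. Unbound fractions quantified by HPLC-MS versus protein-free resin control; apparent KD assumes 1:1 binding.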

S100A4 = biological target: T2, S100A4 (Homo sapiens, UniProt P26447); assay: as above; format: binding; conditions: H14 library; 1:1 binding assumed; read-out: Surface mapping KD (apparent)
T2 construct: made in house; host or cells: Escherichia coli BL21(DE3)
T2 sequence (P26447 whole entry): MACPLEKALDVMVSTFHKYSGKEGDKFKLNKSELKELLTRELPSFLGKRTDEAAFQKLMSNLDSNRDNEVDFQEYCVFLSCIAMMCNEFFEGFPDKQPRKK
How it was run: (§1)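 Buffers were HEPES pH 7.4 with 150 mM NaCl, plus 1 mM TCEP and 1 mM CaCl2 (50 mM HEPES) for S100A4 and S100B, 1 mM TCEP for Gal-1, and no additive for RecQ-WH. Immobilized protein at 64 µM was equilibrated 30 min with the LSM sublibrary, and unbound probes were measured by LC-MS.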

Gal-1 [2] = biological target: T1, Gal-1; assay: Competition pull-down with lactose; format: binding; conditions: H14 library; lactose 10 mM; read-out: Surface mapping KD (apparent), competition
Procedure: Interactions between the H14 helical LSMs and the targets were abundant, but safe recognition of the native PPI interfaces on the targets is a criterion of druggability. To gain insight into the ability of the LSMs to detect orthosteric spots, we carried out pull-down assays in the presence of the native ligands (Table 2) of the targets (Fig. 5). For highlighting the effect of the competitor on the binding fingerprints, KD ratios and the LSM replacement percentages were calculated and are represented as heat maps (see ESI, Fig. S7 ^†). […] This could be explained by the glycan selective native recognition domain of the protein. We note that the replacement pattern for a single probe can, in theory, be complex. […] Moreover, a single probe can bind to both orthosteric and non-orthosteric spots, which limits overall displacement levels. To avoid overlooking interesting orthosteric weak binders, direct replacement levels were assessed (see ESI, Fig. S7 ^†).
Pull-down assay and data analysis
Pull-down assay. LSM sublibraries were screened separately as previously described.(2) Experiments were performed in the following buffers: (i) 20 mM pH 7.4 HEPES, 150 mM NaCl, 5 mM CaCl2 for CaM; (ii) 50 mM pH 7.4 HEPES, 150 mM NaCl, 1 mM TCEP, 1 mM CaCl2 for S100 proteins; (iii) 20 mM pH 7.4 HEPES, 150 mM NaCl, 1 mM TCEP for Gal-1 and (iv) 20 mM pH 7.4 HEPES, 150 mM NaCl for RecQ-WH. Assays were performed in paper filter spin cups (Thermo Scientific) with sample volumes of 100 µl. Hexahistidine-tagged proteins were immobilized on previously washed Co-NTA resin (TALON, Takara Bio USA, Inc., Mountain View, CA) in 64 µM final concentration. LSM sublibrary was added, in which each of the 64 library members were used at a concentration of 1 µM. Samples were incubated at room temperature for 30 min with shaking at 100 rpm. Then, samples were centrifuged at 1000 rpm for 2 min and washed with 100 µl pull-down buffer to remove unbound compounds.
The control experiments were performed using the same compounds and the resin but without the immobilized protein. In case of competitive assays, competitor peptides were added to LSM sublibrary samples in 200 µM final concentration. In the case of Gal-1, lactose (competitor) was used in a concentration of 10 mM. Experiments were performed at least twice. Mean […]
LC-MS methods and parameters. HPLC/ESI-MS analysis was used to characterize the samples from the pull-down assay. LC-MS analysis was performed with a Thermo Scientific Dionex UltiMate 3000 HPLC system interfaced to an LTQ ion trap mass spectrometer (Thermo Electron Corp., San Jose, CA, USA). Samples were injected onto an Aeris Widepore XB-C18 (250 x 4.6 mm) analytical HPLC column using gradient elution 5-80 % solution B during 25 minutes. For pull-down samples, eluent composition was 0.1% acetic acid in distilled water (Solution A) and 0.1% acetic acid in acetonitrile (solution B). Mass spectra were acquired in full scan mode from 200 to 2000 m/z range. For overlapping peaks, selective reaction monitoring (SRM) was […]
MS data analysis. Thermo Xcalibur 2.2 software was used for peak identification and integration. The majority of the foldameric fragments could be resolved independently via HPLC-MS/MS measurements based on molecular weight, MS fragmentation pattern and retention time. Peaks of some foldamers with β3-hIle or β3-hLeu in position R2 could not be resolved, these were integrated and averaged. In the processing method, each sample component was associated to a chromatographic peak based on previously identified mass (m/z) and retention time (ref (2) and Table S7-10). Using ICIS peak detection algorithm, the general detection and integration criteria were: smoothing points: 5, baseline window: 80, area noise factor: 5, peak noise factor: 10. Using these processing setups, all raw data files were reprocessed together and analyzed. Errors in peak identification during the automatic processing were corrected manually.
Calculation of the discussed parameters […]

CaM [3] = biological target: T3, CaM (Bos taurus, UniProt P62157); assay: Competition pull-down with native ligand TRPV1-Ct15; format: binding, bovine; conditions: H14 library; competitor peptide 200 µM; read-out: Surface mapping KD (apparent), competition
T3 construct: made in house; host or cells: E. coli BL21 (DE3)

CaM [4] = biological target: T3, CaM; assay: Pull-down assay with immobilized protein and LSM libraries; format: binding, bovine; conditions: H14 library; 1:2 stoichiometry assumed; read-out: Surface mapping KD (apparent)
How it was run: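 His-tagged protein immobilized on Co-NTA resin, equilibrated 30 min at room temperature with LSM sublibraries (64 members, […]), equimolar protein to total probe. CaM buffer: 20 mM HEPES pH 7.4, 150 mM NaCl, 5 mM CaCl2. Bound fractions from HPLC-MS loss of unbound probe versus protein-free resin control; Kd derived.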

S100B = biological target: T4, S100B (Homo sapiens, UniProt P04271); assay: as above; format: binding; conditions: H14 library; 1:1 binding assumed; read-out: Surface mapping KD (apparent)
T4 construct: made in house; host or cells: Escherichia coli BL21(DE3)
T4 sequence (P04271 1-92): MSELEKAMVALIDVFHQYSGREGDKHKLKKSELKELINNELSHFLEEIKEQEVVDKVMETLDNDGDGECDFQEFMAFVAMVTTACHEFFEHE
How it was run: as §1

T1 sequence (P09382 whole entry): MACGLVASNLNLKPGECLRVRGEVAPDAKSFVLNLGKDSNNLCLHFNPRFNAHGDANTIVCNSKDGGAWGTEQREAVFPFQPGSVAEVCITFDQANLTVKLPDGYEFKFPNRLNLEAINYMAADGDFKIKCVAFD

Structure (SMILES) | Kd (Gal-1 [1]) | Kd (S100A4) | Kd (Gal-1 [2]) | Kd (CaM [3]) | Kd (CaM [4]) | Kd (S100B)
C[C@@H](CC(=O)N[C@H]1CCCC[C@@H]1C(=O)N[C@H]1CCCC[C@@H]1C(=O)N[C@H](CC(=O)N[C@H]1CCCC[C@@H]1C(N)=O)[C@@H](C)O)NC(=O)[C@H]1CCCC[C@@H]1N [H14 AT] | 443 µM | 356 µM | 416 µM |  |  | 
NC(=O)[C@H]1CCCC[C@@H]1NC(=O)C[C@H](CC(=O)O)NC(=O)[C@H]1CCCC[C@@H]1NC(=O)[C@H]1CCCC[C@@H]1NC(=O)C[C@H](CC(=O)O)NC(=O)[C@H]1CCCC[C@@H]1N [H14 DD] |  |  |  | 447 µM |  | 
NC(=O)CC[C@@H](CC(=O)N[C@H]1CCCC[C@@H]1C(N)=O)NC(=O)[C@H]1CCCC[C@@H]1NC(=O)[C@H]1CCCC[C@@H]1NC(=O)C[C@H](CC(=O)O)NC(=O)[C@H]1CCCC[C@@H]1N [H14 DQ] |  |  |  | 212 µM |  | 
NC(=O)C[C@@H](CC(=O)N[C@H]1CCCC[C@@H]1C(N)=O)NC(=O)[C@H]1CCCC[C@@H]1NC(=O)[C@H]1CCCC[C@@H]1NC(=O)C[C@H](CCC(=O)O)NC(=O)[C@H]1CCCC[C@@H]1N [H14 EN] |  |  | 453 µM |  |  | 
NC(=O)CC[C@@H](CC(=O)N[C@H]1CCCC[C@@H]1C(N)=O)NC(=O)[C@H]1CCCC[C@@H]1NC(=O)[C@H]1CCCC[C@@H]1NC(=O)C[C@H](CCC(=O)O)NC(=O)[C@H]1CCCC[C@@H]1N [H14 EQ] |  |  | 443 µM |  |  | 
NC(=O)[C@H]1CCCC[C@@H]1NC(=O)C[C@H](CO)NC(=O)[C@H]1CCCC[C@@H]1NC(=O)[C@H]1CCCC[C@@H]1NC(=O)C[C@H](CCC(=O)O)NC(=O)[C@H]1CCCC[C@@H]1N [H14 ES] |  |  | 282 µM |  |  | 
C[C@@H](CC(=O)N[C@H]1CCCC[C@@H]1C(N)=O)NC(=O)[C@H]1CCCC[C@@H]1NC(=O)[C@H]1CCCC[C@@H]1NC(=O)C[C@H](CCCCN)NC(=O)[C@H]1CCCC[C@@H]1N [H14 KA] |  |  | 465 µM |  | 318 µM | 319 µM
NCCCC[C@@H](CC(=O)N[C@H]1CCCC[C@@H]1C(N)=O)NC(=O)[C@H]1CCCC[C@@H]1NC(=O)[C@H]1CCCC[C@@H]1NC(=O)C[C@H](CCCCN)NC(=O)[C@H]1CCCC[C@@H]1N [H14 KK] |  |  | 298 µM |  | 49 µM | 53 µM
NCCCC[C@@H](CC(=O)N[C@H]1CCCC[C@@H]1C(=O)N[C@H]1CCCC[C@@H]1C(=O)N[C@@H](CC(N)=O)CC(=O)N[C@H]1CCCC[C@@H]1C(N)=O)NC(=O)[C@H]1CCCC[C@@H]1N [H14 KN] |  |  | 278 µM |  | 455 µM | 195 µM
C[C@@H](O)[C@@H](CC(=O)N[C@H]1CCCC[C@@H]1C(N)=O)NC(=O)[C@H]1CCCC[C@@H]1NC(=O)[C@H]1CCCC[C@@H]1NC(=O)C[C@H](CCCCN)NC(=O)[C@H]1CCCC[C@@H]1N [H14 KT] |  |  | 370 µM |  | 242 µM | 194 µM
CSCC[C@@H](CC(=O)N[C@H]1CCCC[C@@H]1C(=O)N[C@H]1CCCC[C@@H]1C(=O)N[C@@H](CC(=O)O)CC(=O)N[C@H]1CCCC[C@@H]1C(N)=O)NC(=O)[C@H]1CCCC[C@@H]1N [H14 MD] |  | 423 µM |  | 278 µM |  | 
CSCC[C@@H](CC(=O)N[C@H]1CCCC[C@@H]1C(=O)N[C@H]1CCCC[C@@H]1C(=O)N[C@@H](CCCCN)CC(=O)N[C@H]1CCCC[C@@H]1C(N)=O)NC(=O)[C@H]1CCCC[C@@H]1N [H14 MK] | 133 µM | 339 µM | 149 µM |  | 33 µM | 125 µM
C[C@@H](CC(=O)N[C@H]1CCCC[C@@H]1C(N)=O)NC(=O)[C@H]1CCCC[C@@H]1NC(=O)[C@H]1CCCC[C@@H]1NC(=O)C[C@H](CC(N)=O)NC(=O)[C@H]1CCCC[C@@H]1N [H14 NA] |  |  |  | 399 µM | 185 µM | 
NC(=O)C[C@@H](CC(=O)N[C@H]1CCCC[C@@H]1C(=O)N[C@H]1CCCC[C@@H]1C(=O)N[C@@H](CCC(=O)O)CC(=O)N[C@H]1CCCC[C@@H]1C(N)=O)NC(=O)[C@H]1CCCC[C@@H]1N [H14 NE] | 378 µM |  |  | 414 µM | 254 µM | 
NC(=O)CC[C@@H](CC(=O)N[C@H]1CCCC[C@@H]1C(=O)N[C@H]1CCCC[C@@H]1C(=O)N[C@@H](CC(=O)O)CC(=O)N[C@H]1CCCC[C@@H]1C(N)=O)NC(=O)[C@H]1CCCC[C@@H]1N [H14 QD] | 379 µM |  |  | 349 µM | 231 µM | 
NC(=O)CC[C@@H](CC(=O)N[C@H]1CCCC[C@@H]1C(=O)N[C@H]1CCCC[C@@H]1C(=O)N[C@@H](CC(N)=O)CC(=O)N[C@H]1CCCC[C@@H]1C(N)=O)NC(=O)[C@H]1CCCC[C@@H]1N [H14 QN] | 257 µM |  |  | 304 µM | 177 µM | 
C[C@@H](O)[C@@H](CC(=O)N[C@H]1CCCC[C@@H]1C(N)=O)NC(=O)[C@H]1CCCC[C@@H]1NC(=O)[C@H]1CCCC[C@@H]1NC(=O)C[C@H](CCC(N)=O)NC(=O)[C@H]1CCCC[C@@H]1N [H14 QT] | 325 µM |  |  | 266 µM | 211 µM | 
N=C(N)NCCC[C@@H](CC(=O)N[C@H]1CCCC[C@@H]1C(=O)N[C@H]1CCCC[C@@H]1C(=O)N[C@@H](CCC(N)=O)CC(=O)N[C@H]1CCCC[C@@H]1C(N)=O)NC(=O)[C@H]1CCCC[C@@H]1N [H14 RQ] |  |  | 421 µM |  | 326 µM | 116 µM
NC(=O)[C@H]1CCCC[C@@H]1NC(=O)C[C@H](CO)NC(=O)[C@H]1CCCC[C@@H]1NC(=O)[C@H]1CCCC[C@@H]1NC(=O)C[C@H](CO)NC(=O)[C@H]1CCCC[C@@H]1N [H14 SS] | 435 µM |  |  | 236 µM | 172 µM | 
C[C@@H](O)[C@@H](CC(=O)N[C@H]1CCCC[C@@H]1C(=O)N[C@H]1CCCC[C@@H]1C(=O)N[C@@H](CCCCN)CC(=O)N[C@H]1CCCC[C@@H]1C(N)=O)NC(=O)[C@H]1CCCC[C@@H]1N [H14 TK] |  |  |  | 485 µM | 88 µM | 172 µM
C[C@@H](O)[C@@H](CC(=O)N[C@H]1CCCC[C@@H]1C(=O)N[C@H]1CCCC[C@@H]1C(=O)N[C@@H](CCC(N)=O)CC(=O)N[C@H]1CCCC[C@@H]1C(N)=O)NC(=O)[C@H]1CCCC[C@@H]1N [H14 TQ] | 369 µM |  |  | 269 µM | 156 µM | 
NC(=O)[C@H]1CCCC[C@@H]1NC(=O)C[C@H](CC(=O)O)NC(=O)[C@H]1CCCC[C@@H]1NC(=O)[C@H]1CCCC[C@@H]1NC(=O)C[C@H](Cc1ccc(O)cc1)NC(=O)[C@H]1CCCC[C@@H]1N [H14 YD] | 119 µM |  | 177 µM |  |  | 
